Reference: ChEMBL document CHEMBL1201862, “PubChem BioAssay data set” (2004)
Calls of active or inactive are those of the source. Unless noted, no cut-off for these calls is given here.

Columns and labels:
Type in all cases: functional
[1] = molecular target: Delta-type opioid receptor (Homo sapiens, UniProt P41143); assay: SAR Analysis of Antagonists of the DOR Receptor using an Image-Based Assay - Set 2. [Related pubchem assays (depositor defined):AID1777, AID1785, AID1786, AID1966, AID2133, AID2136, AID2284, AID2285, AID2357]
[2] = molecular target: T1, Kappa-type opioid receptor (Homo sapiens, UniProt P41145); assay: SAR analysis of small molecule agonists of the kappa opioid receptor via a luminescent beta-arrestin assay - Set 2. [Related pubchem assays (depositor defined):AID1777, AID1785, AID1786, AID1966, AID2133, AID2136, AID2284, AID449737]
[3] = molecular target: T1, Kappa-type opioid receptor; assay: SAR analysis of Antagonists of the Kappa Opioid Receptor (KOR) using an Image-Based Assay - Set 2. [Related pubchem assays (depositor defined):AID1777, AID1785, AID1786, AID1966, AID2133, AID2136, AID2284, AID2285, AID2348]
[4] = molecular target: Sphingosine 1-phosphate receptor 4 (Homo sapiens, UniProt O95977); assay: Late-stage fluorescence dose response cell-based assay to identify agonists of the Sphingosine 1-Phosphate Receptor 4 (S1P4): purchased compounds EC50. [Related pubchem assays (depositor defined):AID1509, AID1523, AID1563, AID1686, AID1701, AID1801]
[5] = molecular target: Voltage-dependent T-type calcium channel subunit alpha-1H (Homo sapiens, UniProt O95180); assay: Cav3.2 T-type channel inhibitors, synthesized analogs, SAR follow-up, cell-based, synthetic library set 2, HEK293 HH8, Fluo-4 (AID 493023)
Chain of Voltage-dependent T-type calcium channel subunit alpha-1H (O95180 whole entry): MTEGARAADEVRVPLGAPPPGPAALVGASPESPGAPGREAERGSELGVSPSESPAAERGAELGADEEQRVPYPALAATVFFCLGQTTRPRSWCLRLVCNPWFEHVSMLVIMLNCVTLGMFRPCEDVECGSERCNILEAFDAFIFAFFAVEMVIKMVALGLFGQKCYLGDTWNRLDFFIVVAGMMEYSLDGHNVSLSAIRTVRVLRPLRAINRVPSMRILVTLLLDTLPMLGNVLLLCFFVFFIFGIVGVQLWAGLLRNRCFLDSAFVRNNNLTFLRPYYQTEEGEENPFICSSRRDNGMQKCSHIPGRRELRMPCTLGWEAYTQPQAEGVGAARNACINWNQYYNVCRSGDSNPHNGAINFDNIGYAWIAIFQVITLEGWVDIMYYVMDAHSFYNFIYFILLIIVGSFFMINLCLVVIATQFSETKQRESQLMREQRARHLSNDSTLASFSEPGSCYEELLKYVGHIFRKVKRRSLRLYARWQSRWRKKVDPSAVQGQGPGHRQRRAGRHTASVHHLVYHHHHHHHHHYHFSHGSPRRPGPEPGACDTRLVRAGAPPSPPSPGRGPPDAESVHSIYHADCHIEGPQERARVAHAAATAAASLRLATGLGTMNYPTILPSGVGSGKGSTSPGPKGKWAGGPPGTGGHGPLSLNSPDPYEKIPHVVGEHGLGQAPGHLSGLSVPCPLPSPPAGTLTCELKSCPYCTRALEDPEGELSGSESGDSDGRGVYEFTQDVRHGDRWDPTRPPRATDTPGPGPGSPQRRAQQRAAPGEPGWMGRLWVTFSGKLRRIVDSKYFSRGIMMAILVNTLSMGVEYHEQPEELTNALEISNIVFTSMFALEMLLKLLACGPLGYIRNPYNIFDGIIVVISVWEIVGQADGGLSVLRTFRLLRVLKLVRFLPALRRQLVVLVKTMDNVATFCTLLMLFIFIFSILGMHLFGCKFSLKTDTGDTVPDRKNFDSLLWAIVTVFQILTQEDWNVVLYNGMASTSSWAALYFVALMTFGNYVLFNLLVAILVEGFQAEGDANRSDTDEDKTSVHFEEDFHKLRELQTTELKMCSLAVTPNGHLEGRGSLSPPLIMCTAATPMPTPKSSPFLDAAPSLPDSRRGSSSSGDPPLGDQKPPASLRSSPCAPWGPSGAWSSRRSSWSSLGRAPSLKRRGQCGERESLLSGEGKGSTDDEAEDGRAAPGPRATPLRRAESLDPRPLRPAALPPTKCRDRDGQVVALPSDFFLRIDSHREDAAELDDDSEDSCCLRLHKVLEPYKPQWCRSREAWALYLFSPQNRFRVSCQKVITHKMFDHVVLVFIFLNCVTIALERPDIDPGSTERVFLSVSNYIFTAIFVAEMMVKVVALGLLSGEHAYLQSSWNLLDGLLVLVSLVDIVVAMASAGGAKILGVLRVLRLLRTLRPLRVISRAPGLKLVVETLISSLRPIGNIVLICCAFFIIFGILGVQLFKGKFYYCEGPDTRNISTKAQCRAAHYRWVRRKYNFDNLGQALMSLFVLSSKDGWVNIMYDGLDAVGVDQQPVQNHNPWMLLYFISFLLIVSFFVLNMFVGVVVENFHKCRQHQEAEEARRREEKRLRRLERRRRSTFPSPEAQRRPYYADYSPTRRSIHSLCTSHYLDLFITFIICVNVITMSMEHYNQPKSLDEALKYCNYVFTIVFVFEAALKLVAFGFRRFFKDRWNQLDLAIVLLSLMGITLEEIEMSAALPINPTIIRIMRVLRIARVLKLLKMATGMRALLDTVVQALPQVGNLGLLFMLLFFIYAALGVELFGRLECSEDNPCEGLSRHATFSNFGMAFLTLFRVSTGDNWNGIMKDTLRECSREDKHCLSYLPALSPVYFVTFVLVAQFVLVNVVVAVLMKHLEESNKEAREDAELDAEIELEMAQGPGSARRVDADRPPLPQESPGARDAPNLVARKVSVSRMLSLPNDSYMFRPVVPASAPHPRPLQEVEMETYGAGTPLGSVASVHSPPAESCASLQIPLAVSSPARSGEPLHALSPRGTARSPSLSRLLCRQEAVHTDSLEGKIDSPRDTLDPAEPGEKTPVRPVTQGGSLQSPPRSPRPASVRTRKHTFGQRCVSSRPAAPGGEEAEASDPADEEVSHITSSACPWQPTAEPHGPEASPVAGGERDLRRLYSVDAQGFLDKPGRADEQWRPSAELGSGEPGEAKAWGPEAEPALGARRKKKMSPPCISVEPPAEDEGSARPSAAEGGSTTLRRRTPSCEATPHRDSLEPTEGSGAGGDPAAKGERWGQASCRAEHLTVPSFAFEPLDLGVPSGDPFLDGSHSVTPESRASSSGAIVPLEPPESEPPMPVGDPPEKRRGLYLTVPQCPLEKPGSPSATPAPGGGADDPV

T1 sequence (P41145 whole entry): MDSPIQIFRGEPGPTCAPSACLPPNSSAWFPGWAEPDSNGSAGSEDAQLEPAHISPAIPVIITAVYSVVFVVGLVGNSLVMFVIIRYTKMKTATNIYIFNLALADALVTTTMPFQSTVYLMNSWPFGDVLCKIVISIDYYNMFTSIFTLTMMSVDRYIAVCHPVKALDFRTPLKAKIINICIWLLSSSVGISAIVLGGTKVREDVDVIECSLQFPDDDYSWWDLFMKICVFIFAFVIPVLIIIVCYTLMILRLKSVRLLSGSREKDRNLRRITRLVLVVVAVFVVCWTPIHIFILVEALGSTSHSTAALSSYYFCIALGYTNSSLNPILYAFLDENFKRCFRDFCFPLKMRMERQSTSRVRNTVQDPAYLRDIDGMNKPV
Chain of Sphingosine 1-phosphate receptor 4 (O95977 whole entry): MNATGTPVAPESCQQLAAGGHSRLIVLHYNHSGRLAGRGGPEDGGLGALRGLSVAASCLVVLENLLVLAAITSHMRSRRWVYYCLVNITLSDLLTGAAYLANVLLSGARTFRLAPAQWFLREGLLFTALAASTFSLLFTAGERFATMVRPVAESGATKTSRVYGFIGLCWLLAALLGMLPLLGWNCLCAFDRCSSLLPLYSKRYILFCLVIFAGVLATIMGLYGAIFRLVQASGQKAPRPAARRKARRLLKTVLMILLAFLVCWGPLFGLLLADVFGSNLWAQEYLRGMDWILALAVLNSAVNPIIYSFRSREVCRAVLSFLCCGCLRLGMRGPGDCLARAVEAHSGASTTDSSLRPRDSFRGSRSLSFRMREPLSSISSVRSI
Chain of Delta-type opioid receptor (P41143 whole entry): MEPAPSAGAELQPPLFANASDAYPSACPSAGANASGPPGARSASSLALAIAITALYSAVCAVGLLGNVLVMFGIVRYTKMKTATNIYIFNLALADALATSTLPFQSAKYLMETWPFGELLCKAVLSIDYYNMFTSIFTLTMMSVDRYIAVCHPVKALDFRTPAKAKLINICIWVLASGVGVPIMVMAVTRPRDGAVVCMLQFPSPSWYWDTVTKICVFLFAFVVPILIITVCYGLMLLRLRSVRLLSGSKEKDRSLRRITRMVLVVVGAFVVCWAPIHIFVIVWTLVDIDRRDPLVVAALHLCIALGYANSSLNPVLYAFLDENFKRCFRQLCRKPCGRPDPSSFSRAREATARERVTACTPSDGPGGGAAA

In the case of CC[C@](C)(C(=O)NC1CCCCC1)N(Cc1ccco1)C(=O)c1ccccn1, the IC50 [1] is reported as > 32 µM (inactive), the EC50 [2] is reported as 0.151 µM (active) and the IC50 [3] is reported as > 32 µM (inactive).

For Cc1ccc(OCC(=O)NC(C)c2ccc(Cl)cc2Cl)c([N+](=O)[O-])n1 (stereo not given), the EC50 [4] was > 50 µM (inactive).

In the case of CC(C)(C)CCN1CCC[C@@H](NC(=O)COc2ccc(F)cc2Cl)C1, the EC50 [5] is reported as 10 µM (active).
